Assay results taken from ChEMBL document CHEMBL4622880, “Anti-inflammatory Activity of Absinthin and Derivatives in Human Bronchoepithelial Cells” (J Nat Prod, 2020).
The source made the active and inactive calls. The calls are words filed in the database; no cut-off is given here.

What was measured:
[1] = biological target: T1, Taste receptor type 2 member 46 (Homo sapiens) (UniProt P59540); assay: Agonist activity at human TAS2R46 expressed in human BEAS2B cells assessed as antiinflammatory activity by measuring reduction in PMA-induced MUC5AC expression at 1 uM incubated for 18 hrs by TRITC-phalloidin/DAPI staining based analysis; assay type: cell-based
T1 sequence (whole entry): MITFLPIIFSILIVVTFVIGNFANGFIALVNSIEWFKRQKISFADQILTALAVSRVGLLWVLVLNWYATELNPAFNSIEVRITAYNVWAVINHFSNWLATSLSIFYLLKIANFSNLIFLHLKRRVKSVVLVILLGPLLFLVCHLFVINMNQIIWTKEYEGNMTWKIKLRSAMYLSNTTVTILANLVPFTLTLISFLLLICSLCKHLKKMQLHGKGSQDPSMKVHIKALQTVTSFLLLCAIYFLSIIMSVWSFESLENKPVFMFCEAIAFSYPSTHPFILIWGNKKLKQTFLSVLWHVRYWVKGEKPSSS

[2] = biological target: T1, Taste receptor type 2 member 46 (Homo sapiens); assay: Agonist activity at human TAS2R46 expressed in human BEAS2B cells assessed as antiinflammatory activity by measuring reduction in PMA-induced iNOS protein level at 1 uM incubated for 18 hrs by TRITC-phalloidin/DAPI staining based analysis; assay type: cell-based
[3] = biological target: T1, Taste receptor type 2 member 46 (Homo sapiens); assay: (§1) Agonist activity at human TAS2R46 expressed in human BEAS2B cells assessed as antiinflammatory activity by measuring reduction in PMA-induced superoxide anion generation at 1 uM preincubated for 1 hr followed by PMA addition and measured after 30 mins by cytochrome C reduction assay; assay type: cell-based
[4] = biological target: T1, Taste receptor type 2 member 46 (Homo sapiens); assay: Agonist activity at human TAS2R46 expressed in human BEAS2B cells assessed as increase in cytosolic calcium level at 1 mM by Fluo-2-AM dye based fluorescence assay; assay type: functional, cell-based
[5] = biological target: T1, Taste receptor type 2 member 46 (Homo sapiens); assay: Agonist activity at human TAS2R46 expressed in PMA-induced human BEAS2B cells assessed as antiinflammatory activity by measuring increase in IL-10 gene expression at 1 uM incubated for 18 hrs by qRT-PCR analysis; assay type: cell-based
[6] = biological target: T1, Taste receptor type 2 member 46 (Homo sapiens); assay: Agonist activity at human TAS2R46 expressed in PMA-induced human BEAS2B cells assessed as antiinflammatory activity by measuring increase in IL-4 gene expression at 1 uM incubated for 18 hrs by qRT-PCR analysis; assay type: cell-based
[7] = biological target: T1, Taste receptor type 2 member 46 (Homo sapiens); assay: Agonist activity at human TAS2R46 expressed in human BEAS2B cells assessed as antiinflammatory activity by measuring reduction in PMA-induced iNOS mRNA level at 1 uM incubated for 18 hrs by qRT-PCR analysis; assay type: cell-based
[8] = biological target: T1, Taste receptor type 2 member 46 (Homo sapiens); assay: Agonist activity at human TAS2R46 expressed in human BEAS2B cells assessed as antiinflammatory activity by measuring reduction in PMA-induced IL-1beta gene expression at 1 uM incubated for 18 hrs in presence of 1 uM TAS2R46 antagonist 3HDC by qRT-PCR analysis; assay type: cell-based
[9] = biological target: T1, Taste receptor type 2 member 46 (Homo sapiens); assay: Agonist activity at human TAS2R46 expressed in human BEAS2B cells assessed as antiinflammatory activity by measuring reduction in PMA-induced IL-1beta gene expression at 1 uM incubated for 18 hrs by qRT-PCR analysis; assay type: cell-based
[10] = biological target: T1, Taste receptor type 2 member 46 (Homo sapiens); assay: Agonist activity at human TAS2R46 expressed in human BEAS2B cells assessed as increase in cytosolic calcium level at 1 mM in presence of 100 uM TAS2R46 antagonist 3HDC by Fluo-2-AM dye based fluorescence assay; assay type: functional, cell-based
[11] = biological target: T1, Taste receptor type 2 member 46 (Homo sapiens); assay: as §1, with “antioxidant” for “antiinflammatory”, “mins in presence of 1 uM TAS2R46 antagonist 3HDC” for “mins”; assay type: cell-based
[12] = tested on: BEAS-2B; assay: Effect on basal superoxide anion production in human BEAS2B cells expressing human TAS2R46 at 1 uM after 1 hr by cytochrome C reduction assay; assay type: ADME, cell-based
[13] = biological target: T1, Taste receptor type 2 member 46 (Homo sapiens); assay: Agonist activity at human TAS2R46 expressed in human BEAS2B cells assessed as antiinflammatory activity by measuring reduction in PMA-induced MUC5AC gene expression at 1 to 10 uM incubated for 18 hrs by qRT-PCR analysis; assay type: cell-based
[14] = biological target: T1, Taste receptor type 2 member 46 (Homo sapiens); assay: (§2) Agonist activity at human TAS2R46 expressed in human BEAS2B cells assessed as antioxidant activity by measuring reduction in PMA-induced superoxide anion generation at 10 uM preincubated for 1 hr followed by PMA addition and measured after 30 mins by cytochrome C reduction assay; assay type: cell-based
[15] = biological target: T1, Taste receptor type 2 member 46 (Homo sapiens); assay: Agonist activity at human TAS2R46 expressed in PMA-induced human BEAS2B cells assessed as antiinflammatory activity by measuring increase in IL-4 gene expression at 10 uM incubated for 18 hrs by qRT-PCR analysis; assay type: cell-based
[16] = biological target: T1, Taste receptor type 2 member 46 (Homo sapiens); assay: Agonist activity at human TAS2R46 expressed in human BEAS2B cells assessed as antiinflammatory activity by measuring reduction in PMA-induced IL-1beta gene expression at 10 uM incubated for 18 hrs in presence of 1 uM TAS2R46 antagonist 3HDC by qRT-PCR analysis; assay type: cell-based
[17] = tested on: BEAS-2B; assay: Effect on basal superoxide anion production in human BEAS2B cells expressing human TAS2R46 at 10 uM after 1 hr by cytochrome C reduction assay; assay type: ADME, cell-based
[18] = biological target: T1, Taste receptor type 2 member 46 (Homo sapiens); assay: Agonist activity at human TAS2R46 expressed in human BEAS2B cells assessed as antiinflammatory activity by measuring reduction in PMA-induced IL-1beta gene expression at 10 uM incubated for 18 hrs by qRT-PCR analysis; assay type: cell-based
[19] = biological target: T1, Taste receptor type 2 member 46 (Homo sapiens); assay: Agonist activity at human TAS2R46 expressed in human BEAS2B cells assessed as antiinflammatory activity by measuring reduction in PMA-induced iNOS mRNA level at 10 uM incubated for 18 hrs by qRT-PCR analysis; assay type: cell-based
[20] = biological target: T1, Taste receptor type 2 member 46 (Homo sapiens); assay: Agonist activity at human TAS2R46 expressed in human BEAS2B cells assessed as effect on cytosolic calcium level at microM concentration by Fluo-2-AM dye based fluorescence assay; assay type: functional, cell-based
[21] = biological target: T1, Taste receptor type 2 member 46 (Homo sapiens); assay: Agonist activity at human TAS2R46 expressed in PMA-induced human BEAS2B cells assessed as antiinflammatory activity by measuring increase in IL-10 gene expression at 10 uM incubated for 18 hrs by qRT-PCR analysis; assay type: cell-based
[22] = biological target: T1, Taste receptor type 2 member 46 (Homo sapiens); assay: Agonist activity at human TAS2R46 expressed in human BEAS2B cells assessed as antiinflammatory activity by measuring reduction in PMA-induced iNOS protein level at 10 uM incubated for 18 hrs by TRITC-phalloidin/DAPI staining based analysis; assay type: cell-based
[23] = biological target: T1, Taste receptor type 2 member 46 (Homo sapiens); assay: as §2, with “mins in presence of 1 uM TAS2R46 antagonist 3HDC” for “mins”; assay type: cell-based
[24] = biological target: T1, Taste receptor type 2 member 46 (Homo sapiens); assay: Agonist activity at human TAS2R46 expressed in PMA-induced human BEAS2B cells assessed as antiinflammatory activity by measuring increase in IL-10 gene expression at 1 uM incubated for 18 hrs in presence of 1 uM TAS2R46 antagonist 3HDC by qRT-PCR analysis; assay type: cell-based
[25] = biological target: T1, Taste receptor type 2 member 46 (Homo sapiens); assay: Agonist activity at human TAS2R46 expressed in human BEAS2B cells assessed as increase in cytosolic calcium level at 1 mM in presence of […] antagonist 3HDC by Fluo-2-AM dye based fluorescence assay; assay type: functional, cell-based
[26] = biological target: T1, Taste receptor type 2 member 46 (Homo sapiens); assay: Agonist activity at human TAS2R46 expressed in PMA-induced human BEAS2B cells assessed as antiinflammatory activity by measuring increase in IL-4 gene expression at 1 uM incubated for 18 hrs in presence of 1 uM TAS2R46 antagonist 3HDC by qRT-PCR analysis; assay type: cell-based

Activity [1]	Activity [2]	Activity [3]	Activity [4]	Activity [5]	Activity [6]	Activity [7]	Activity [8]	Activity [9]	Activity [10]	Activity [11]	Activity [25]	SMILES	Activity [12]	other results
Active	Active	Active	Active	inactive	inactive	Active	Active	Active	inactive	inactive		CC1=C2C=C([C@H](C)C(=O)OCCc3ccccc3)CC[C@](C)(O)[C@@H]2[C@H]2[C@@H]3CC4(C)O[C@@]5(C)CC[C@H]6[C@H](C)C(=O)O[C@@H]6C4([C@@H]35)[C@@H]12	Non-Toxic	
Active		Active	Active	inactive	inactive		inactive	Active	inactive	inactive		CC1=C[C@@H]2[C@H]3[C@H](C(C)=C4[C@H]5OC(=O)[C@@H](C)[C@@H]5CC[C@](C)(O)[C@@H]43)[C@@]13[C@@H]2[C@@](C)(O)CC[C@H]1[C@H](C)C(=O)O[C@@H]13	Non-Toxic	Activity [13]: Active; Activity [14]: Active; Activity [15]: inactive; Activity [16]: inactive; Activity [17]: Non-Toxic; Activity [18]: Active; Activity [19]: Active; Activity [20]: inactive; Activity [21]: inactive; Activity [22]: Active; Activity [23]: inactive
Active	Active	Active	Active	Active	Active	Active	Active	Active		inactive	inactive	COC(=O)[C@@H](C)C1=CC2=C(C)[C@H]3[C@H]([C@@H]4CC5(C)O[C@@]6(C)CC[C@H]7[C@H](C)C(=O)O[C@@H]7C35[C@@H]46)[C@H]2[C@@](C)(O)CC1	Non-Toxic	Activity [24]: inactive; Activity [26]: inactive
Active	Active	Active	Active	inactive	inactive	inactive	Active	Active	Active	inactive	Active	CC1=C2C=C(C(C)NC(=O)N=[N+]=[N-])CC[C@](C)(O)[C@@H]2[C@H]2[C@@H]3CC4(C)O[C@@]5(C)CC[C@H]6[C@H](C)C(=O)O[C@@H]6C4([C@@H]35)[C@@H]12 (stereo not given in full)	Non-Toxic	
